Source: patent US3959290A, “3,14-Substituted-8-oxamorphinans” (Bristol-Myers Company, priority 1974, dated 1976)
Structures can show the parent of a compound that is named as a salt. Where two headings read alike, the source gives them in different places.

Assays:
[1] = tested on: righting reflex loss induced by oxymorphone; assay: animal or person; format: in vivo; conditions: Rattus norvegicus, rats, oxymorphone 1.5 mg./kg. sc., weights in terms of the free base
Experimental: (§1) In vivo testing was conducted on the compounds designated herein as XVc (racemic mixture), d-XVc (dextrorotatory isomer), l-XVc (levorotatory isomer) and dl-XVd (see examples for structures) to determine their agonist and/or antagonist properties. The figures reported are the number of milligrams/kilogram of body weight of compound that produced an agonist or antagonist effect in 50% of the mice and rats so tested (ED50).
(§2) All the compounds were tested as the tartrates, but the weights reported in mg./kg. are corrected and reported in terms of the free base.
^3 Antagonism of righting reflex loss induced by oxymorphone (1.5 mg./kg. sc.) in 50 per cent of rats.

[2] = tested on: analgesic effect induced by morphine; assay: animal or person; format: in vivo; conditions: morphine 15 mg./kg. sc., weights in terms of the free base; for ED50: Rattus norvegicus
Experimental: as §1, §2

[3] = tested on: Straub Tail induced by oxymorphone; assay: Antagonism of Straub Tail induced by oxymorphone in 50 per cent of mice; format: in vivo; conditions: oxymorphone 2 mg./kg. sc., weights in terms of the free base; for ED50: Mus musculus
Experimental: as §1, §2
^2 Antagonism of Straub Tail induced by oxymorphone (2 mg./kg. sc.) in 50 per cent of mice.

[4] = tested on: phenylquinone induced writhings; assay: Phenylquinone writhing (50 per cent reduction in number of phenylquinone induced writhings), mouse; format: in vivo; conditions: for ED50 Agonist Activity, Phenylquinone Writhing, Mouse, SC / ED50: weights in terms of the free base
Experimental: as §1, §2
(§3) ^1 A 50 per cent reduction in number of phenylquinone induced writhings (Siegmund, E. A. et al., Proc. Soc. Biol. & Med. 95, 729; 1957).

[5] = tested on: phenylquinone induced writhings; assay: Phenylquinone writhing (50 per cent reduction in number of phenylquinone induced writhings), rat; format: in vivo; conditions: weights in terms of the free base; for ED50: Rattus norvegicus
Experimental: as §1, §2, §3

[6] = In vivo testing for agonist and/or antagonist properties (overall conclusion from Table I); set-up: species or system mice and rats; conditions: parenteral and oral administration
Experimental: as §1

[7] = SC, read-out: ED50 Antagonist Activity, Oxymorphone Narcosis, SC
[8] = sc, read-out: ED50 Antagonist Activity, Morphine Antagonism Rat Tail Flick, SC
[9] = sc, read-out: ED50 Antagonist Activity, Oxymorphone Straub Tail, SC
[10] = Mus musculus, sc, read-out: ED50 Agonist Activity, Phenylquinone Writhing, Mouse, SC
[11] = po, read-out: ED50 Antagonist Activity, Morphine Antagonism Rat Tail Flick, PO
[12] = po, read-out: ED50 Agonist Activity, Phenylquinone Writhing, Rat, PO
[13] = sc, read-out: ED50 Agonist Activity, Phenylquinone Writhing, Rat, SC

In the case of `CC(C)=CCN1CCC2(C)c3cc(O)ccc3CC1C2C` (stereo not shown) [Pentazocine, reference compound], the ED50 [1, 7] is reported as 10 mg/kg and the ED50 [2, 8] is reported as 12.2 mg/kg.
For `C[C@@]12OCCC[C@@]13CCN(CC1CC1)[C@@H]2Cc1ccc(O)cc13` [d-XVc tartrate, N-Cyclopropylmethyl-3-hydroxy-14β-methyl-8-oxamorphinan], the “ED50 Antagonist Activity, Oxymorphone Straub Tail, SC” value [3] was greater than 10 mg/kg, the “ED50 Agonist Activity, Phenylquinone Writhing, Mouse, SC” value ([4]; SC) was greater than 40 mg/kg and the “ED50 Antagonist Activity, Morphine Antagonism Rat Tail Flick, SC” value [2] was greater than 20 mg/kg.
`C[C@@]12OCCC[C@@]13CCN(CC1CC1)[C@@H]2Cc1ccc(O)cc13` (racemic) [XVc tartrate, N-Cyclopropylmethyl-3-hydroxy-14β-methyl-8-oxamorphinan] showed an ED50 [1, 7] of 0.36 mg/kg, an ED50 [3, 9] of 0.61 mg/kg and an ED50 [4, 10] of 0.19 mg/kg. It also gave an ED50 [2, 11] of 7.3 mg/kg, an ED50 [2, 8] of 0.05 mg/kg and an ED50 [5, 12] of 4 mg/kg. For the same molecule, the ED50 [5, 13] was 0.03 mg/kg.
In the case of `C=CCN1CC[C@]23c4c5ccc(O)c4O[C@H]2[C@@H](O)C=C[C@H]3[C@H]1C5` [Nalorphine, reference compound], the ED50 [3, 9] is reported as 1.14 mg/kg.
In the case of `C=CCN1CC[C@]23CCCC[C@H]2[C@H]1Cc1ccc(O)cc13` [Levallorphan, reference compound], the “dose response, Phenylquinone Writhing, Mouse, SC” value ([4]; SC, remark under the ED50) is reported as “poor dose” and the ED50 ([4]; SC, read-out: ED50 Agonist Activity, Phenylquinone Writhing, Mouse, SC) is reported as 26.3 mg/kg.
For `C[C@@]12OCCC[C@@]13CCN(CC1CC1)[C@@H]2Cc1ccc(O)cc13` [l-XVc tartrate, N-Cyclopropylmethyl-3-hydroxy-14β-methyl-8-oxamorphinan], the ED50 ([1]; PO, read-out: ED50 Antagonist Activity, Oxymorphone Narcosis, PO) was 1.25 mg/kg, the ED50 [1, 7] was 0.014 mg/kg and the ED50 ([3]; po, read-out: ED50 Antagonist Activity, Oxymorphone Straub Tail, PO) was 14.6 mg/kg. The “ED50 Antagonist Activity, Oxymorphone Straub Tail, SC” value [3] was “≈ 0.2 mg./kg”, the ED50 ([4]; Mus musculus, po, read-out: ED50 Agonist Activity, Phenylquinone Writhing, Mouse, PO) was 2.7 mg/kg and the “ED50 Agonist Activity, Phenylquinone Writhing, Mouse, SC” value ([4]; SC) was 0.11 mg/kg. For the same molecule, the ED50 [2, 11] was 6.3 mg/kg, the “ED50 Antagonist Activity, Morphine Antagonism Rat Tail Flick, SC” value [2] was 0.021 mg/kg and the “agonist and antagonist activity” value [6] was “potent agonist and antagonist activity”. The ED50 [5, 12] was 1.3 mg/kg and the “ED50 Agonist Activity, Phenylquinone Writhing, Rat, SC” value ([5]; SC) was 0.02 mg/kg.
Work on `Cl.Oc1ccc2c(c1)[C@@]13CCCO[C@H]1[C@H](C2)N(CC1CC1)CC3` [l-XVk hydrochloride, l-N-cyclopropylmethyl-3-hydroxy-8-oxamorphinan hydrochloride] yielded an ED50 [1, 7] of 0.03 mg/kg, an ED50 [3, 9] of 0.2 mg/kg and an ED50 [4, 10] of 0.013 mg/kg. The ED50 [2, 8] was 0.97 mg/kg and the ED50 [5, 13] was 0.009 mg/kg.
